Test results published in patent US20260198493A1, “HYDRAZIDE COMPOUND AND AGRICULTURAL/HORTICULTURAL FUNGICIDE” (Nippon Soda Co., Ltd., priority 2022, published 2026).

Experiments:
[1] = test system: Botrytis cinerea; type: cell-based; conditions: 120 h, 25 ppm by volume, Vogel medium, 20° C., five days, dark, read-out: growth inhibition ratio
[2] = test system: Fusarium graminearum; assay: microbe, parasite or virus in culture; type: cell-based; conditions: 96 h, read-out: growth inhibition ratio
[3] = test system: Botrytis cinerea; assay: Control test of cucumber gray mold (sprayed young cucumber seedlings); type: in vivo; conditions: 96 h, four days after inoculation; for pest or weed control at 25 ppm: 25 ppm by mass spray; for pest or weed control at 125 ppm: 125 ppm by mass spray
Description: Then, the drug liquid was sprayed onto young cucumber seedlings cultivated in a nursery pot (variety “Jihai”-based, cotyledon stage), and then air-dried. […] They were left still in a moist room at 20° C. Four days after inoculation, leaves of the young cucumber seedlings were visually observed, and the control value was calculated from the lesion area ratio in accordance with the following equation. [formula]

[4] = test system: Venturia inaequalis; assay: Control test of apple scab disease (sprayed young apple seedlings); type: in vivo; conditions: 125 ppm by mass spray, 12 to 14 days after inoculation
[5] = test system: Erysiphe graminis f.sp.tritici; assay: Control test of wheat powdery mildew disease (sprayed young wheat seedlings); type: in vivo; conditions: Blumeria graminis, 144 h, 125 ppm by mass spray, six days after inoculation
[6] = test system: Colletotrichum acutatum; assay: Fungicidal effect test against fungi causing apple anthracnose; conditions: 96 h, read-out: growth inhibition ratio
[7] = test system: Glomerella cingulata; assay: Fungicidal effect test against fungi causing grape ripe rot disease; conditions: Colletotrichum gloeosporioides, 72 h, read-out: growth inhibition ratio

COC(=O)N(Cc1ccc(Cl)cc1C)NC(=O)c1cc(C)nnc1Oc1cccc(C2CC2)c1F [b-34]
≥ 75%: inhibition of growth at 25 ppm [1] | inhibition of growth at 25 ppm [2] | pest or weed control at 25 ppm [3] | pest or weed control at 125 ppm [3] | pest or weed control at 125 ppm [4] | pest or weed control at 125 ppm [5] | inhibition of growth at 25 ppm [6] | inhibition of growth at 25 ppm [7]

COC(=O)N(Cc1ccc(Br)cc1C)NC(=O)c1cc(C)nnc1Oc1cccc(C2CC2)c1F [b-45]
≥ 75%: inhibition of growth at 25 ppm [1] | inhibition of growth at 25 ppm [2] | pest or weed control at 25 ppm [3] | pest or weed control at 125 ppm [3] | pest or weed control at 125 ppm [4] | pest or weed control at 125 ppm [5] | inhibition of growth at 25 ppm [6] | inhibition of growth at 25 ppm [7]

COC(=O)N(Cc1ccc(C)cc1Cl)NC(=O)c1cc(C)nnc1Oc1cccc(C2CC2)c1F [b-46]
≥ 75%: inhibition of growth at 25 ppm [1] | inhibition of growth at 25 ppm [2] | pest or weed control at 25 ppm [3] | pest or weed control at 125 ppm [3] | pest or weed control at 125 ppm [4] | pest or weed control at 125 ppm [5] | inhibition of growth at 25 ppm [6] | inhibition of growth at 25 ppm [7]

COC(=O)N(Cc1ccc(C)cc1C)NC(=O)c1cc(C)nnc1Oc1cccc(F)c1F [b-152]
≥ 75%: inhibition of growth at 25 ppm [1] | inhibition of growth at 25 ppm [2] | pest or weed control at 25 ppm [3] | pest or weed control at 125 ppm [3] | pest or weed control at 125 ppm [4] | pest or weed control at 125 ppm [5] | inhibition of growth at 25 ppm [6] | inhibition of growth at 25 ppm [7]

COC(=O)N(Cc1ccc(C)cc1C)NC(=O)c1cc(C)nnc1Oc1cccc(C(F)(F)F)c1 [b-53]
≥ 75%: inhibition of growth at 25 ppm [1] | inhibition of growth at 25 ppm [2] | pest or weed control at 25 ppm [3] | pest or weed control at 125 ppm [3] | pest or weed control at 125 ppm [4] | pest or weed control at 125 ppm [5] | inhibition of growth at 25 ppm [6] | inhibition of growth at 25 ppm [7]

CCc1cncc(Oc2cccc(C3CC3)c2F)c1C(=O)NN(Cc1ccc(OC)cc1C)C(=O)OC [b-230]
≥ 75%: inhibition of growth at 25 ppm [1] | inhibition of growth at 25 ppm [2] | pest or weed control at 25 ppm [3] | pest or weed control at 125 ppm [3] | pest or weed control at 125 ppm [4] | pest or weed control at 125 ppm [5] | inhibition of growth at 25 ppm [6] | inhibition of growth at 25 ppm [7]

COC(=O)N(Cc1ccc(OC)cc1C)NC(=O)c1cc(C)ncc1Oc1cccc(Br)c1 [b-107]
≥ 75%: inhibition of growth at 25 ppm [1] | inhibition of growth at 25 ppm [2] | pest or weed control at 125 ppm [3] | pest or weed control at 125 ppm [4] | pest or weed control at 125 ppm [5] | inhibition of growth at 25 ppm [6] | inhibition of growth at 25 ppm [7]

COC(=O)N(Cc1ccc(C)cc1C)NC(=O)c1c(Cl)cncc1Oc1cccc(Cl)c1F [b-231]
≥ 75%: inhibition of growth at 25 ppm [1] | inhibition of growth at 25 ppm [2] | pest or weed control at 25 ppm [3] | pest or weed control at 125 ppm [3] | pest or weed control at 125 ppm [4] | pest or weed control at 125 ppm [5] | inhibition of growth at 25 ppm [6] | inhibition of growth at 25 ppm [7]

COC(=O)N(Cc1ccc(C)cc1C)NC(=O)c1cc(C)nnc1Oc1cccc(C#N)c1 [b-37]
≥ 75%: inhibition of growth at 25 ppm [1] | inhibition of growth at 25 ppm [2] | pest or weed control at 125 ppm [3] | pest or weed control at 125 ppm [5] | inhibition of growth at 25 ppm [6] | inhibition of growth at 25 ppm [7]

COC(=O)N(Cc1ccc(C)cc1C)NC(=O)c1c(Oc2cccc(C3CC3)c2F)nnc2ccccc12 [b-90, Methyl 2-(3-(3-cyclopropyl-2-fluorophenoxy)cinnoline-4-carbonyl)-1-(2,4-dimethylbenzyl)hydrazine-1-carboxylate]
≥ 75%: inhibition of growth at 25 ppm [1] | inhibition of growth at 25 ppm [2] | pest or weed control at 25 ppm [3] | pest or weed control at 125 ppm [3] | pest or weed control at 125 ppm [4] | pest or weed control at 125 ppm [5] | inhibition of growth at 25 ppm [6] | inhibition of growth at 25 ppm [7]

COC(=O)N(Cc1ccc(OC)cc1C)NC(=O)c1c(Cl)cncc1Oc1cccc(Cl)c1F [b-207]
≥ 75%: inhibition of growth at 25 ppm [1] | inhibition of growth at 25 ppm [2] | pest or weed control at 25 ppm [3] | pest or weed control at 125 ppm [3] | pest or weed control at 125 ppm [5] | inhibition of growth at 25 ppm [6] | inhibition of growth at 25 ppm [7]

Cc1ccc(CN(C=O)NC(=O)c2cc(C)ncc2Oc2cccc(C3CC3)c2F)c(C)c1 [b-14]
≥ 75%: inhibition of growth at 25 ppm [1] | inhibition of growth at 25 ppm [2] | pest or weed control at 25 ppm [3] | pest or weed control at 125 ppm [3] | pest or weed control at 125 ppm [5] | inhibition of growth at 25 ppm [6] | inhibition of growth at 25 ppm [7]

C=Cc1cncc(Oc2cccc(C3CC3)c2F)c1C(=O)NN(Cc1ccc(C)cc1C)C(=O)OC [b-211]
≥ 75%: inhibition of growth at 25 ppm [1] | inhibition of growth at 25 ppm [2] | pest or weed control at 25 ppm [3] | pest or weed control at 125 ppm [3] | pest or weed control at 125 ppm [5] | inhibition of growth at 25 ppm [6] | inhibition of growth at 25 ppm [7]

C#Cc1cccc(Oc2nnc(C)cc2C(=O)NN(Cc2ccc(C)cc2C)C(=O)OC)c1 [b-138]
≥ 75%: inhibition of growth at 25 ppm [1] | inhibition of growth at 25 ppm [2] | pest or weed control at 25 ppm [3] | pest or weed control at 125 ppm [3] | pest or weed control at 125 ppm [4] | inhibition of growth at 25 ppm [6] | inhibition of growth at 25 ppm [7]

Cc1ccc(CN(C=O)NC(=O)c2cc(C)nnc2Oc2cccc(C3CC3)c2F)c(C)c1 [b-3, 3-(3-cyclopropyl-2-fluorophenoxy)-N′-(2,4-dimethylbenzyl)-N′-formyl-6-methylpyridazine-4-carbohydrazide]
≥ 75%: inhibition of growth at 25 ppm [1] | inhibition of growth at 25 ppm [2] | pest or weed control at 25 ppm [3] | pest or weed control at 125 ppm [3] | pest or weed control at 125 ppm [5] | inhibition of growth at 25 ppm [6] | inhibition of growth at 25 ppm [7]

COC(=O)N(Cc1ccc(C)cc1C)NC(=O)c1cc(C)nnc1Oc1cccc(C2CC2)c1F [b-6, Methyl 2-(3-(3-cyclopropyl-2-fluorophenoxy)-6-methylpyridazine-4-carbonyl)-1-(2,4-dimethylbenzyl)hydrazine-1-carboxylate]
≥ 75%: inhibition of growth at 25 ppm [2] | pest or weed control at 25 ppm [3] | pest or weed control at 125 ppm [3] | pest or weed control at 125 ppm [4] | pest or weed control at 125 ppm [5]

COC(=O)N(Cc1ccc(C)cc1C)NC(=O)c1c(Oc2cccc(C3CC3)c2F)cnc2c1OC(C)(C)C=C2 [b-213, Methyl 2-(7-(3-cyclopropyl-2-fluorophenoxy)-2,2-dimethyl-2H-pyrano[3,2-b]pyridine-8-carbonyl)-1-(2,4-dimethylbenzyl)hydrazine-1-carboxylate]
≥ 75%: inhibition of growth at 25 ppm [1] | inhibition of growth at 25 ppm [2] | pest or weed control at 25 ppm [3] | pest or weed control at 125 ppm [3] | pest or weed control at 125 ppm [5] | inhibition of growth at 25 ppm [6] | inhibition of growth at 25 ppm [7]

COC(=O)N(Cc1ccc(C)cc1C)NC(=O)c1c(F)cncc1Oc1cccc(Cl)c1F [b-200]
≥ 75%: inhibition of growth at 25 ppm [1] | inhibition of growth at 25 ppm [2] | pest or weed control at 25 ppm [3] | pest or weed control at 125 ppm [3] | pest or weed control at 125 ppm [5] | inhibition of growth at 25 ppm [6] | inhibition of growth at 25 ppm [7]

COC(=O)N(Cc1ccc(C)cc1C)NC(=O)c1ccncc1Oc1ccccc1 [b-188]
≥ 75%: inhibition of growth at 25 ppm [1] | inhibition of growth at 25 ppm [2] | pest or weed control at 25 ppm [3] | pest or weed control at 125 ppm [3] | pest or weed control at 125 ppm [5] | inhibition of growth at 25 ppm [6] | inhibition of growth at 25 ppm [7]
